Data taken from patent US10266537B2, “3-acetylenyl-pyrazole-pyrimidine derivative, and preparation method therefor and uses thereof” (Si Chuan University, priority 2015, dated 2019).

What was measured:
Assay in all cases: Kinase inhibition assay (KinaseProfiler, 33P-ATP)
[1] = target: Ret (Homo sapiens (Human), UniProt P07949); format: biochemical
[2] = target: Flt3(h) (Homo sapiens (Human), UniProt P36888); format: biochemical; settings: 10 μM, read-out: The percentage of the remaining active protein
[3] = target: EphB3 (Homo sapiens (Human), UniProt P54753); format: biochemical; settings: EphB3(h), read-out: The percentage of the remaining active protein
Sequence of EphB3 (P54753 34-998): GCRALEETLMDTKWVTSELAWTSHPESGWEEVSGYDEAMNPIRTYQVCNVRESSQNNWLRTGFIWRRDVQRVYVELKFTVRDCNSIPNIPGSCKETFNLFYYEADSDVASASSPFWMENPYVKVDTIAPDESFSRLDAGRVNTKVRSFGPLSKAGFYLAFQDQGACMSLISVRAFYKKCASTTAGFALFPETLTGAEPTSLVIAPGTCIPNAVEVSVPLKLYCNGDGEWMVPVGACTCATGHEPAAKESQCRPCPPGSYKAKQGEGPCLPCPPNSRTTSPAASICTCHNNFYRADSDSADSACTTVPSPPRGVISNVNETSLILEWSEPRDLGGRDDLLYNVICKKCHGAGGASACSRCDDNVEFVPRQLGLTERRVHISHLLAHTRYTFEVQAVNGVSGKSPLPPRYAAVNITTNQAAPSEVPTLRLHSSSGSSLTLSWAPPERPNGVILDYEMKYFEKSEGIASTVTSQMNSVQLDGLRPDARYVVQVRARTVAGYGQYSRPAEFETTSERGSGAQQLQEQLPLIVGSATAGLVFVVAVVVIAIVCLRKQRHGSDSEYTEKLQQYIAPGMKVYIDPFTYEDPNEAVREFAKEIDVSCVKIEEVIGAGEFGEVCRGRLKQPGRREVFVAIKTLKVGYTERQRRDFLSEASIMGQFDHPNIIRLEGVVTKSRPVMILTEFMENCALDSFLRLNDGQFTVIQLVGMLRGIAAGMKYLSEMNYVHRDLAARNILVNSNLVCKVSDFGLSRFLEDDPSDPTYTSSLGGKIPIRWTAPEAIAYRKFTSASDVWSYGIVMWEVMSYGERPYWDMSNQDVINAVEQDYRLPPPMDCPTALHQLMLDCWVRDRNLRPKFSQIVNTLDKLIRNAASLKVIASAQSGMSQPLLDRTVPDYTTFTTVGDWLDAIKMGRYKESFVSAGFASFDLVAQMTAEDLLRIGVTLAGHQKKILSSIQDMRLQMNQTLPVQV

[4] = target: TAO2 (Homo sapiens (Human), UniProt Q9UL54); format: biochemical; settings: TAO2(h), read-out: The percentage of the remaining active protein
[5] = target: TAO3 (Homo sapiens (Human), UniProt Q9H2K8); format: biochemical; settings: TAO3(h), read-out: The percentage of the remaining active protein
[6] = target: Abl (M351T)(h) (Homo sapiens (Human), UniProt P00519, M351T); format: biochemical; settings: read-out: The percentage of the remaining active protein
[7] = target: Abl (Q252H)(h) (Homo sapiens (Human), UniProt P00519, Q252H); format: biochemical; settings: read-out: The percentage of the remaining active protein
[8] = target: ALK4(h) (Homo sapiens (Human), UniProt P36896); format: biochemical; settings: read-out: The percentage of the remaining active protein
[9] = target: BrSK2(h) (Homo sapiens (Human), UniProt Q8IWQ3); format: biochemical; settings: read-out: The percentage of the remaining active protein
[10] = target: CDK1/cyclinB(h) (Homo sapiens (Human), UniProt P06493); format: biochemical; settings: read-out: The percentage of the remaining active protein
[11] = target: CK2(h) (Homo sapiens (Human), UniProt P68400); format: biochemical; settings: read-out: The percentage of the remaining active protein
[12] = target: cKit(D816V)(h) (Homo sapiens (Human), UniProt P10721, D816V); format: biochemical; settings: read-out: The percentage of the remaining active protein
Sequence of cKit(D816V)(h) (P10721 26-976 D816V): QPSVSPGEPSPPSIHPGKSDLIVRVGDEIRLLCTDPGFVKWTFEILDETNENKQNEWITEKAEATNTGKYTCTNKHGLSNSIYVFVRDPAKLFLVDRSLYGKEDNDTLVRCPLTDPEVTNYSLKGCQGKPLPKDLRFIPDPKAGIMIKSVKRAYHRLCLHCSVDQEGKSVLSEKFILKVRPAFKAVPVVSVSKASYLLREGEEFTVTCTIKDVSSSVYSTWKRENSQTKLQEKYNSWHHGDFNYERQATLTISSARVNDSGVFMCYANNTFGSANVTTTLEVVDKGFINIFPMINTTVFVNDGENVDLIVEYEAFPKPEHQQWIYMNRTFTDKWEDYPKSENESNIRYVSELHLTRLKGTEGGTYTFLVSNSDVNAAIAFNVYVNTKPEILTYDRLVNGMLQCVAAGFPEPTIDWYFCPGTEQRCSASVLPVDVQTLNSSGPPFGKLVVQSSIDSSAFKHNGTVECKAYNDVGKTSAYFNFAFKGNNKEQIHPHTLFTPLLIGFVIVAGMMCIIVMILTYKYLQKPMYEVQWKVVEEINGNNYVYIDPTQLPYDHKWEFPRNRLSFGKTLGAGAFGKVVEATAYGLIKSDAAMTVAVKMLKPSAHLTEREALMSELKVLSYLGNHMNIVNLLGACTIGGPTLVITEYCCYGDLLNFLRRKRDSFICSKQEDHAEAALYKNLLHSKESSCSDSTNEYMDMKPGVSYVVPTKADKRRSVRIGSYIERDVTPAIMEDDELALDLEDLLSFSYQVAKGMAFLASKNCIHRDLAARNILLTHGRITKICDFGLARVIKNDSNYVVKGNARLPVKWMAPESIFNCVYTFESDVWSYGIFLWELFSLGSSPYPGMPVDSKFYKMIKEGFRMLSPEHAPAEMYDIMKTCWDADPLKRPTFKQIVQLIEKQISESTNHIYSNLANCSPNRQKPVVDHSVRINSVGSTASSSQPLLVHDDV

[13] = target: cKit(V654A)(h) (Homo sapiens (Human), UniProt P10721, V654A); format: biochemical; settings: read-out: The percentage of the remaining active protein
Sequence of cKit(V654A)(h) (P10721 26-976 V654A): as the sequence (P10721 26-976 D816V) above, with V629A, V791D counted along it

[14] = target: Flt3(D835Y)(h) (Homo sapiens (Human), UniProt P36888, D835Y); format: biochemical; settings: read-out: The percentage of the remaining active protein
[15] = target: GCK(h) (Homo sapiens (Human), UniProt Q12851); format: biochemical; settings: read-out: The percentage of the remaining active protein
Sequence of GCK(h) (Q12851 whole entry): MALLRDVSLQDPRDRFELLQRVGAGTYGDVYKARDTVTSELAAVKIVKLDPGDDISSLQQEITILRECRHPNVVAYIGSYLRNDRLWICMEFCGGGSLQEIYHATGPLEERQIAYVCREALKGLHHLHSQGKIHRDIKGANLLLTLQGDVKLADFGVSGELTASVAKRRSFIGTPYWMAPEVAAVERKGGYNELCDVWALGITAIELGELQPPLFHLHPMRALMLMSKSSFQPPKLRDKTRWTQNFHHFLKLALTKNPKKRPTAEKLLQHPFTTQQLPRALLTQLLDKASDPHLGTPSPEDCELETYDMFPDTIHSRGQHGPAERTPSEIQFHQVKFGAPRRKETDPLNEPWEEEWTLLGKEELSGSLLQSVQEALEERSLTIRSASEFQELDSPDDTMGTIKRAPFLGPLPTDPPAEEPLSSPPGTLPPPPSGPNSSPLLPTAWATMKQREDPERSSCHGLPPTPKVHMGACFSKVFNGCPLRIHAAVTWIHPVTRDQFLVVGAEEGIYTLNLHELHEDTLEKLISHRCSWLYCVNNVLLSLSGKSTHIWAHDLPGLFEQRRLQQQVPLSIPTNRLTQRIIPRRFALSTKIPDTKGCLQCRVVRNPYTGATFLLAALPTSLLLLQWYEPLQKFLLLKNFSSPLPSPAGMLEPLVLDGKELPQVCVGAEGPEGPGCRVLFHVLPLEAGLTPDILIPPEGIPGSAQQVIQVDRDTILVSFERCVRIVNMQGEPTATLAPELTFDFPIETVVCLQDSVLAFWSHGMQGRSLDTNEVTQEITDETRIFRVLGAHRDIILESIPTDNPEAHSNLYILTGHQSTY

[16] = target: GSK3α(h) (Homo sapiens (Human), UniProt P49840); format: biochemical; settings: read-out: The percentage of the remaining active protein
[17] = target: IR(h), activated (Homo sapiens (Human), UniProt P06213); format: biochemical; settings: read-out: The percentage of the remaining active protein
[18] = target: MKK4(m) (Mus musculus (Mouse), UniProt P47809); format: biochemical; settings: read-out: The percentage of the remaining active protein
[19] = tested on: MLCK(h); format: biochemical, human; settings: 10 μM
[20] = target: MLK1(h) (Homo sapiens (Human), UniProt P80192); format: biochemical; settings: read-out: The percentage of the remaining active protein
[21] = target: MRCKβ(h) (Homo sapiens (Human), UniProt Q9Y5S2); format: biochemical; settings: read-out: The percentage of the remaining active protein
[22] = target: NEK6(h) (Homo sapiens (Human), UniProt Q9HC98); format: biochemical; settings: read-out: The percentage of the remaining active protein
[23] = target: PDK1(h) (Homo sapiens (Human), UniProt O15530); format: biochemical; settings: read-out: The percentage of the remaining active protein
[24] = target: Pim-3(h) (Homo sapiens (Human), UniProt Q86V86); format: biochemical; settings: read-out: The percentage of the remaining active protein
[25] = target: PKCη(h) (Homo sapiens (Human), UniProt P24723); format: biochemical; settings: read-out: The percentage of the remaining active protein
Sequence of PKCη(h) (P24723 whole entry): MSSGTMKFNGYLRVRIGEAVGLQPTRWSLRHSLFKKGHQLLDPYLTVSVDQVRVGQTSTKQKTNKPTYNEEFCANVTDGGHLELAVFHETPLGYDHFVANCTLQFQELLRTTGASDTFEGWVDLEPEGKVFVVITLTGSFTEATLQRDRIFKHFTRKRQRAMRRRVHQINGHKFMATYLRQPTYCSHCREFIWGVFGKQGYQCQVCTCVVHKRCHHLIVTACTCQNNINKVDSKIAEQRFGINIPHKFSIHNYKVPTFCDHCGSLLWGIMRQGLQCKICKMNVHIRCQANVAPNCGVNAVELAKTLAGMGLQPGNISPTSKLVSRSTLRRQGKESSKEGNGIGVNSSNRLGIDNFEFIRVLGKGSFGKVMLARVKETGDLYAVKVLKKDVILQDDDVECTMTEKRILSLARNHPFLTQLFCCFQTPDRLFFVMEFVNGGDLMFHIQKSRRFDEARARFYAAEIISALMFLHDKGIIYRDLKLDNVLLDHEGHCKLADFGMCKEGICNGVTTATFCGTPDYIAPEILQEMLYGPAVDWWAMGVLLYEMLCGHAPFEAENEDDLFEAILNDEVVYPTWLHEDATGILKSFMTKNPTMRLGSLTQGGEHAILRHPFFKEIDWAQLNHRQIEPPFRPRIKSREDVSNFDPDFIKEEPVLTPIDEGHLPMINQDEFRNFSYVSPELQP

[26] = target: PKCμ(h) (Homo sapiens (Human), UniProt Q15139); format: biochemical; settings: read-out: The percentage of the remaining active protein
[27] = target: PKR(h) (Homo sapiens (Human), UniProt P19525); format: biochemical; settings: read-out: The percentage of the remaining active protein
[28] = target: PRK2(h) (Homo sapiens (Human), UniProt Q16513); format: biochemical; settings: read-out: The percentage of the remaining active protein
[29] = target: Rsk2(h) (Homo sapiens (Human), UniProt P51812); format: biochemical; settings: read-out: The percentage of the remaining active protein
[30] = target: STK33(h) (Homo sapiens (Human), UniProt Q9BYT3); format: biochemical; settings: read-out: The percentage of the remaining active protein
[31] = target: Syk(h) (Homo sapiens (Human), UniProt P43405); format: biochemical; settings: read-out: The percentage of the remaining active protein
[32] = target: Tie2(R849W)(h) (Homo sapiens (Human), UniProt Q02763, R849W); format: biochemical; settings: read-out: The percentage of the remaining active protein
[33] = target: PI3 Kinase (p120g)(h) (Homo sapiens (Human), UniProt P48736); format: biochemical; settings: read-out: The percentage of the remaining active protein
[34] = target: PI3 Kinase (p110a(E542K)/p85a)(h) (Homo sapiens (Human), UniProt P42336, E542K); format: biochemical; settings: read-out: The percentage of the remaining active protein
[35] = target: PI3KC2g(h) (Homo sapiens (Human), UniProt O75747); format: biochemical; settings: read-out: The percentage of the remaining active protein

Sequence of Ret (P07949 29-1114): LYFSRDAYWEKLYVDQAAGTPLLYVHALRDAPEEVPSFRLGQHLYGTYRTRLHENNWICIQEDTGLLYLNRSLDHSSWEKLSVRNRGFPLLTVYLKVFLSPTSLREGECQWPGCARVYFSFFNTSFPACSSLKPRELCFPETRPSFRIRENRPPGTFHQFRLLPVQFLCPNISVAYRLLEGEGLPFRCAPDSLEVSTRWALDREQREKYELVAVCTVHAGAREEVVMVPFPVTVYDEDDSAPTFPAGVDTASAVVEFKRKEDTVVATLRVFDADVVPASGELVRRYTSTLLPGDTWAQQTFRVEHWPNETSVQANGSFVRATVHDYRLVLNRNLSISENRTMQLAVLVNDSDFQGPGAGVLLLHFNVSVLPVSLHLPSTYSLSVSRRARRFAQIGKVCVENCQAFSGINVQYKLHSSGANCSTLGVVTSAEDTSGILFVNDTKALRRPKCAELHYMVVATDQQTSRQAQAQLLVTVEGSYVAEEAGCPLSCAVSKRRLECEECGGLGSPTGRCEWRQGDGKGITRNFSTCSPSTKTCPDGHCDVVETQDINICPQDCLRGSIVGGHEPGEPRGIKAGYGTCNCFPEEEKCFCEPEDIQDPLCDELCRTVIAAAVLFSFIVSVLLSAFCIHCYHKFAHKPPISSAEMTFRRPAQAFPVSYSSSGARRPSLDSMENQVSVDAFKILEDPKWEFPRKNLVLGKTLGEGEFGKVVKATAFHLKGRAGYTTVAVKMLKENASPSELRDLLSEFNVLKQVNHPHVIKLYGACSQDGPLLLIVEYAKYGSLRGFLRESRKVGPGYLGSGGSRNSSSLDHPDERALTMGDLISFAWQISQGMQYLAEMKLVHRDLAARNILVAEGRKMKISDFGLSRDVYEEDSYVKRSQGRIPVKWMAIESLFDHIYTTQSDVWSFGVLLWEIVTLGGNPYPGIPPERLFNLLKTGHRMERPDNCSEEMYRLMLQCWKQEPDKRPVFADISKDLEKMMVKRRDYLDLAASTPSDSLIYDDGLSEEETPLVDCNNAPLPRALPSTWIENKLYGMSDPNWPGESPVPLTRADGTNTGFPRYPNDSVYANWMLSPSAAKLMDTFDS

`Cc1ccc(NC(=O)c2ccc(C)c(C(F)(F)F)c2)cc1C#Cc1nn([C@H]2CC[C@H](O)CC2)c2ncnc(N)c12` [Compound 93] showed a remaining activity at 10 µM ([1]; Ret(h), 10 μM, read-out: The percentage of the remaining active protein) of 2%, an IC50 ([1]; Ret, ATP at Km) of 4 nM and a remaining activity at 10 µM [2] of 73%. The remaining activity at 10 µM [3] was 5%, the remaining activity at 10 µM [4] was 5% and the remaining activity at 10 µM [5] was 2%. The remaining activity at 10 µM [6] was 0%, the remaining activity at 10 µM [7] was 2% and the remaining activity at 10 µM [8] was 79%. The remaining activity at 10 µM [9] was 93%, the remaining activity at 10 µM [10] was 104% and the remaining activity at 10 µM [11] was 105%. For the same compound, the remaining activity at 10 µM [12] was 9%, the remaining activity at 10 µM [13] was 7% and the remaining activity at 10 µM [14] was 118%. For the same compound, the remaining activity at 10 µM [15] was 49%, the remaining activity at 10 µM [16] was 79% and the remaining activity at 10 µM [17] was 89%. The remaining activity at 10 µM [18] was 49%, the “The percentage of the remaining active protein” value [19] was 62% and the remaining activity at 10 µM [20] was 7%. The remaining activity at 10 µM [21] was 87%, the remaining activity at 10 µM [22] was 98% and the remaining activity at 10 µM [23] was 113%. For the same compound, the remaining activity at 10 µM [24] was 99%, the remaining activity at 10 µM [25] was 72% and the remaining activity at 10 µM [26] was 91%. It also gave a remaining activity at 10 µM [27] of 75%, a remaining activity at 10 µM [28] of 97% and a remaining activity at 10 µM [29] of 44%. It also gave a remaining activity at 10 µM [30] of 109%, a remaining activity at 10 µM [31] of 95% and a remaining activity at 10 µM [32] of 0%. It also gave a remaining activity at 10 µM [33] of 87%, a remaining activity at 10 µM [34] of 85% and a remaining activity at 10 µM [35] of 98%.
